Counter-ions that a name gives are not always drawn.
Target: T1, JAK3 (Homo sapiens, UniProt P52333)
T1 construct: The Ramos B-cell line was acquired from ATCC (ATCC Catalog No. CRL-1596); host or cells: Ramos B-cell line (human)
T1 sequence (P52333 1-1124): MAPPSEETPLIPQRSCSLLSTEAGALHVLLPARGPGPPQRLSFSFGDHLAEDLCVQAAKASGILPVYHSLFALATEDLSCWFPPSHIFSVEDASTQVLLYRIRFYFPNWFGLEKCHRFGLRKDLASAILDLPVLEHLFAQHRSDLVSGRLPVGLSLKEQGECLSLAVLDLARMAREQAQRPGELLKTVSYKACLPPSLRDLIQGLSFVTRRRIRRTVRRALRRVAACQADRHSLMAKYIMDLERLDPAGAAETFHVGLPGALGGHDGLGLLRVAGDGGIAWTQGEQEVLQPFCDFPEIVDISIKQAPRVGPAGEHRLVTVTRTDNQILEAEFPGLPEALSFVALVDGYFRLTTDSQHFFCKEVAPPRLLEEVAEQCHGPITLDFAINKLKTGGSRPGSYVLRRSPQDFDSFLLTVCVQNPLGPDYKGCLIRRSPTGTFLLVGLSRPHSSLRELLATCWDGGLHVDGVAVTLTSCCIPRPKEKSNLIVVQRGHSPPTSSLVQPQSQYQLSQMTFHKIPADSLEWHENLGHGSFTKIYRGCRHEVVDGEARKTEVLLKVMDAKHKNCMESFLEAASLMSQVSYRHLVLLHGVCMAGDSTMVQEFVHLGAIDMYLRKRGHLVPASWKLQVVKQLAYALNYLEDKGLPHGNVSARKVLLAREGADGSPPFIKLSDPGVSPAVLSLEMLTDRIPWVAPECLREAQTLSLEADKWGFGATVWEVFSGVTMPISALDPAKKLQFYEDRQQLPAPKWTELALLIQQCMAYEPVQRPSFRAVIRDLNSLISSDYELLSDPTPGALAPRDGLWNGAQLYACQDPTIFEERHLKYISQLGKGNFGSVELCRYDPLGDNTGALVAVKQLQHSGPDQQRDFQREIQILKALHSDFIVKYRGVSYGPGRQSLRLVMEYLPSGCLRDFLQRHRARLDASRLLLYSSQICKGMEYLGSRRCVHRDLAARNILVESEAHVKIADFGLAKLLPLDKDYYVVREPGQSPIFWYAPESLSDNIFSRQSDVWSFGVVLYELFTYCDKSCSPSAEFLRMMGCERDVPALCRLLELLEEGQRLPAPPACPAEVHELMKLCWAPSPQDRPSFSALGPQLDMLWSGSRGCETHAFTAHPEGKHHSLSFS
Experiment: Assay for CD23 expression on Ramos B-cells stimulated by IL-4 (Table IV: ability to inhibit JAK3 activity)
Type: cell-based
Conditions: tested under conditions described in Example 3 (so in the source)
Source text: One means of assaying for such inhibition is detection of the effect of the 2,4-pyrimidinediamine compounds on the upregulation of downstream gene products. In the Ramos/IL4 assay, B-cells are stimulated with the cytokine Interleukin-4 (IL-4) leading to the activation of the JAK/Stat pathway through phosphorylation of the JAK family kinases, JAK1 and JAK3, which in turn phosphorylate and activate the transcription factor Stat-6. […] To study the effect of inhibitors (for example, the 2,4-substituted pyrimindinediamine compounds described herein) on the JAK1 and JAK3 kinases, human Ramos B cells are stimulated with human IL-4. 20 to 24 hours post stimulation, cells are stained for upregulation of CD23 and analyzed using FACS.
B-cells stimulated with cytokine Interleukin-4 (IL-4) activate the JAK/Stat pathway through phosphorylation of the JAK family kinases, JAK-1 and JAK-3, which in turn phosphorylate and activate the transcription factor Stat-6. […] To study the effect of inhibitors on the JAK family kinases, human Ramos B cells were stimulated with human IL-4 and the surface expression of CD23 was measured.
The day before the experiment, Ramos B-cells were diluted to 3.5×10^5 cells/mL to ensure that they were in a logarithmic growth phase.
Cells were spun down and suspended in RPMI with 5% serum. 5×10^4 cells were used per point in a 96-well tissue culture plate. Cells were pre-incubated with compound or DMSO (Sigma-Aldrich, St. Louis, Mo., Cat No. D2650) vehicle control for 1 hour in a 37° C. incubator. Cells were then stimulated with IL-4 (Peprotech Inc., Rocky Hill, N.J., Cat No. 200-04) for a final concentration of 50 units/mL for 20-24 hours. […] Detection was performed using a BD LSR I System Flow Cytometer, purchased from Becton Dickinson Biosciences of San Jose, Calif.
The compound designations in Table IV are consistent with those of Tables I-II above.

Structure (SMILES) | IC50 [nM]
COc1cc(Nc2ncc(C)c(Nc3ccc4oc(=O)[nH]c4c3)n2)cc(C)c1F [Compound I-105, 5-(2-(4-fluoro-3-methoxy-5-methylphenylamino)-5-methylpyrimidin-4-ylamino)benzo[d]oxazol-2(3H)-one] | < 500
[2H]C([2H])([2H])c1c(C)cc(Nc2ncc(F)c(Nc3ccc4oc(=O)[nH]c4c3)n2)cc1C [Compound I-37, 5-(5-fluoro-2-(3,5-dimethyl-4-d3-methyl)phenylamino)pyrimidin-4-ylamino)benzo[d]oxazol-2(3H)-one trifluoroacetate salt] | > 10000
Cc1cnc(Nc2cc(C)c(CO)c(C)c2)nc1Nc1ccc2oc(=O)[nH]c2c1 [Compound I-142, N2-(3,5-dimethyl-4-hydroxymethyl)phenyl-5-methyl-N4-(2-oxo-2,3-dihydro-1,3-benzoxazol-5-yl)-2,4-pyrimidinediamine] | < 500
Cc1cc(Nc2ncc(F)c(Nc3ccc4oc(=O)[nH]c4c3)n2)cc(C)c1C#N [Compound I-70, 4-(5-fluoro-4-(2-oxo-2,3-dihydrobenzo[d]oxazol-5-ylamino)pyrimidin-2-ylamino)-2,6-dimethylbenzonitrile] | < 500
Cc1cc(Nc2ncc(F)c(Nc3cc(F)c4oc(=O)[nH]c4c3)n2)cc(C)c1C [Compound I-188, 5-(2-(3,4,5-trimethylphenylamino)-5-fluoropyrimidin-4-ylamino)-7-fluorobenzo[d]oxazol-2(3H)-one trifluoroacetate salt] | < 500
C=Cc1cccc(Nc2ncc(C)c(Nc3ccc4oc(=O)[nH]c4c3)n2)c1 [Compound I-65, 5-[5-Methyl-2-(3-vinyl-phenylamino)-pyrimidin-4-ylamino]-3H-benzooxazol-2-one trifluoroacetate salt] | < 500
Cc1cnc(Nc2ccc(CC=O)cc2)nc1Nc1ccc2oc(=O)[nH]c2c1 [Compound I-30, {4-[5-Methyl-4-(2-oxo-2,3-dihydro-benzooxazol-5-ylamino)-pyrimidin-2-ylamino]-phenyl}-acetaldehyde] | < 500
NS(=O)(=O)c1cccc(Nc2ncc(F)c(Nc3cc(F)c4oc(=O)[nH]c4c3)n2)c1 [Compound I-174, 3-(5-fluoro-4-(7-fluoro-2-oxo-2,3-dihydrobenzo[d]oxazol-5-ylamino)pyrimidin-2-ylamino)benzenesulfonamide trifluoroacetate salt] | < 500
Cc1cnc(Nc2cccc(C#N)c2F)nc1Nc1ccc2oc(=O)[nH]c2c1 [Compound I-72, 2-fluoro-3-(5-methyl-4-(2-oxo-2,3-dihydrobenzo[d]oxazol-5-ylamino)pyrimidin-2-ylamino)benzonitrile trifluoroacetate salt] | < 500
COc1ccc(Nc2ncc(Cl)c(Nc3ccc4oc(=O)[nH]c4c3)n2)c(F)c1OC [Compound I-51, 5-(5-chloro-2-(2-fluoro-3,4-dimethoxyphenylamino)pyrimidin-4-ylamino)benzo[d]oxazol-2(3H)-one trifluoroacetate salt] | < 500
NC(=O)c1ccc(Nc2ncc(Cl)c(Nc3ccc4oc(=O)[nH]c4c3)n2)cc1 [Compound I-11, 4-(5-chloro-4-(2-oxo-2,3-dihydrobenzo[d]oxazol-5-ylamino)pyrimidin-2-ylamino)benzamide trifluoroacetate salt] | < 500
Cc1cc(Nc2ncc(F)c(Nc3ccc4oc(=O)[nH]c4c3)n2)cc(C)c1C [Compound I-214, 5-fluoro-N2-(3,4,5-trimethyl)phenyl-N4-(2-oxo-2,3-dihydro-1,3-benzoxazol-5-yl)-2,4-pyrimidinediamine] | > 10000
COc1cc(Nc2ncc(C)c(Nc3cc(F)c4oc(=O)[nH]c4c3)n2)cc(C)c1C [Compound I-111, 5-(2-(3-methoxy-4,5-dimethylphenylamino)-5-methylpyrimidin-4-ylamino)-7-fluorobenzo[d]oxazol-2(3H)-one trifluoroacetate trifluoroacetate salt] | < 500
COc1cc(Nc2ncc(C)c(Nc3ccc4oc(=O)[nH]c4c3)n2)cc(C)c1CO [Compound I-129, 4-(4-(2,3-dihydro-2-oxobenzo[d]oxazol-5-ylamino)-5-methylpyrimidin-2-ylamino)-2-methoxy-6-methylbenzyl alcohol trifluoroacetate salt] | < 500
O=c1[nH]c2cc(Nc3nc(Nc4ccc5c(c4)CCC(N4CCCC4)CC5)ncc3F)ccc2o1 (centres unmarked) [II-2, 5-(5-fluoro-2-(7-(pyrrolidin-1-yl)-6,7,8,9-tetrahydro-5H-benzo[7]annulen-2-ylamino)pyrimidin-4-ylamino)benzo[d]oxazol-2(3H)-one diformate salt] | < 500
O=C(NC1CC1)c1ccc(Nc2ncc(F)c(Nc3ccc4oc(=O)[nH]c4c3)n2)cc1C(F)(F)F [Compound I-165, N-cyclopropyl-4-(5-fluoro-4-(2-oxo-2,3-dihydrobenzo[d]oxazol-5-ylamino)pyrimidin-2-ylamino)-2-(trifluoromethyl)benzamide formate salt] | < 500
O=C1CCCc2cc(Nc3ncc(F)c(Nc4ccc5oc(=O)[nH]c5c4)n3)ccc2N1 [II-27, 7-(4-(2,3-dihydro-2-oxobenzo[d]oxazol-5-ylamino)-5-fluoropyrimidin-2-ylamino)-4,5-dihydro-1H-benzo[b]azepin-2(3H)-one trifluoroacetate salt] | < 500
Cc1cc(Nc2ncc(CN3CCCC3)c(Nc3ccc4oc(=O)[nH]c4c3)n2)cc(C)c1C [Compound I-98, 5-(2-(3,4,5-trimethylphenylamino)-5-((pyrrolidin-1-yl)methyl)pyrimidin-4-ylamino)benzo[d]oxazol-2(3H)-one] | 5000 to 10000
COCCOc1c(C)ccc(Nc2ncc(Cl)c(Nc3ccc4oc(=O)[nH]c4c3)n2)c1F [Compound I-66, 5-(5-chloro-2-(2-fluoro-3-(2-methoxyethoxy)-4-methylphenylamino)pyrimidin-4-ylamino)benzo[d]oxazol-2(3H)-one trifluoroacetate salt] | < 500
CCOc1cc(Nc2ncc(C)c(Nc3ccc4oc(=O)[nH]c4c3)n2)cc(C)c1C [Compound I-103, 5-(2-(3-ethoxy-4,5-dimethylphenylamino)-5-methylpyrimidin-4-ylamino)benzo[d]oxazol-2(3H)-one ditrifluoroacetate salt] | < 500
COc1c(Br)ccc(Nc2ncc(C)c(Nc3ccc4oc(=O)[nH]c4c3)n2)c1F [Compound I-27, 5-[2-(4-Bromo-2-fluoro-3-methoxy-phenylamino)-5-methyl-pyrimidin-4-ylamino]-3H-benzooxazol-2-one] | < 500
C#Cc1cnc(Nc2cc(C)c(C)c(C)c2)nc1Nc1ccc2oc(=O)[nH]c2c1 [Compound I-18, 5-[5-Ethynyl-2-(3,4,5-trimethyl-phenylamino)-pyrimidin-4-ylamino]-3H-benzooxazol-2-one trifluoroacetate salt] | < 500
COC(=O)c1cnc(Nc2cc(OC)cc(C(F)(F)F)c2)nc1Nc1ccc2oc(=O)[nH]c2c1 [Compound I-55, 2-(3-Methoxy-5-trifluoromethyl-phenylamino)-4-(2-oxo-2,3-dihydro-benzooxazol-5-ylamino)-pyrimidine-5-carboxylic acid methyl ester trifluoroacetate salt] | > 10000

— US11174251B2, “Compositions and methods for inhibition of the JAK pathway” (Rigel Pharmaceuticals, Inc., priority 2010, dated 2021)
